“And” between values parts separate entries of the source, which are not always exact repeats. Equal values may be shown once.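 Results reflect a 48-hour exposure of cells in 96-well plates to compound at five concentrations. GI50 is the concentration that inhibits growth by half.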 The source made the active and inactive calls. No stated cut-off is given here; in the data, active = GI50 up to about 1.1 µM and inactive = higher. Where a SMILES comes first, the peptide text is derived from it. [ ]: non-standard residue; d: D form. The star is where a group is joined. Iva = CC[C](C)(N)C(=O)O; Boc = CC(C)(C)OC(=O)*; X54 = C1CCC(=NO*)C1
What was measured:
Assay in all cases: growth of human tumour cells (NCI), 48 h
UACC-257 = tested on: UACC-257
Hs-578T = tested on: Hs-578T
NCI/ADR-RES = tested on: NCI/ADR-RES
786-0 = tested on: 786-0
BT-549 = tested on: BT-549
MDA-MB-435 = tested on: MDA-MB-435
SNB-75 = tested on: SNB-75
OVCAR-3 = tested on: OVCAR-3
MDA-MB-231 = tested on: MDA-MB-231
KM12 = tested on: KM12
SF-295 = tested on: SF-295
PC-3 = tested on: PC-3
T47D = tested on: T47D
DU-145 = tested on: DU-145
MDA-N = tested on: MDA-N
HL-60 = tested on: HL-60
OVCAR-8 = tested on: OVCAR-8
SR = tested on: SR

Measured: GI50

OC(c1ccc(Br)cc1)(c1cccs1)C1CC1 (stereo not given)
inactive: UACC-257 27 µM | Hs-578T 22.3 µM | NCI/ADR-RES 25.1 µM | 786-0 18.3 µM | BT-549 24.4 µM | MDA-MB-435 18.1 µM | SNB-75 25.8 µM | OVCAR-3 18.8 µM | MDA-MB-231 18.3 µM | KM12 17.7 µM | SF-295 21.6 µM | PC-3 22.8 µM | T47D 22.8 µM | DU-145 26.1 µM | MDA-N 20.7 µM | HL-60 20.8 µM | OVCAR-8 24.4 µM

Cc1occc1C(=S)Nc1ccc(Cl)c(C(=O)OCC(C)C)c1
inactive: UACC-257 17.9 µM | Hs-578T 25.1 µM | NCI/ADR-RES 12.9 µM | 786-0 16.7 µM | BT-549 17.2 µM | MDA-MB-435 16.5 µM | SNB-75 15.3 µM | OVCAR-3 22.4 µM | MDA-MB-231 16.6 µM | KM12 14.4 µM | SF-295 16.6 µM | PC-3 16.1 µM | T47D 12.8 µM | DU-145 18.3 µM | MDA-N 21.1 µM | HL-60 29.4 µM | OVCAR-8 15.8 µM

O=C1CCC[C@]2(CCC[C@@H](O)C2)N1
inactive: UACC-257 > 100 µM | Hs-578T > 100 µM | NCI/ADR-RES > 100 µM | 786-0 > 100 µM | BT-549 > 100 µM | SNB-75 > 100 µM | OVCAR-3 > 100 µM | MDA-MB-231 > 100 µM | KM12 > 100 µM | SF-295 > 100 µM | PC-3 > 100 µM | T47D > 100 µM | DU-145 > 100 µM | MDA-N > 100 µM | HL-60 > 100 µM | OVCAR-8 > 100 µM

CCOC(=O)c1c(CN2CCNCC2)nc2ccccc2c1-c1ccccc1
inactive: UACC-257 4.07 µM | Hs-578T 16.1 µM | NCI/ADR-RES 16.2 µM | 786-0 12.7 µM | BT-549 17.2 µM | MDA-MB-435 14.3 µM | SNB-75 7.03 µM | OVCAR-3 17.5 µM | MDA-MB-231 15.6 µM | KM12 15.6 µM | SF-295 15.1 µM | PC-3 13.4 µM | T47D 13.9 µM | DU-145 17.5 µM | MDA-N 10.9 µM | HL-60 12.9 µM | OVCAR-8 15.8 µM

CC(Oc1ccc(Oc2cnc3ccc(Cl)cc3n2)cc1)C(=O)O (stereo not given)
inactive: Hs-578T > 88.1 µM | BT-549 > 80.2 µM | SR > 44.5 µM | SNB-75 47.3 µM | OVCAR-3 > 100 µM | MDA-MB-231 > 100 µM | SF-295 98.9 µM | T47D 92 µM and 64.4 µM | DU-145 > 88.9 µM | HL-60 > 100 µM | OVCAR-8 > 82.4 µM

Cc1cc2c(nn1)-c1ccccc1C2=O
inactive: Hs-578T > 10 µM | NCI/ADR-RES > 10 µM | 786-0 > 10 µM | BT-549 > 10 µM | MDA-MB-435 > 10 µM | SR > 10 µM | OVCAR-3 > 10 µM | MDA-MB-231 > 10 µM | KM12 > 10 µM | SF-295 > 10 µM | PC-3 > 10 µM | T47D > 10 µM | DU-145 > 10 µM | MDA-N > 10 µM | HL-60 > 10 µM | OVCAR-8 > 10 µM

CCC(C)(NC(=O)C(C)NC(=O)OC(C)(C)C)C(=O)NC(C)C(=O)NC(C)(CC)C(=O)ON=C1CCCC1 (stereo not given) (Boc-A[Iva]A[Iva]-X54; configuration not given here)
inactive: Hs-578T > 100 µM | NCI/ADR-RES > 100 µM | BT-549 > 100 µM | MDA-MB-435 > 100 µM | SR > 100 µM | SNB-75 > 100 µM | OVCAR-3 > 100 µM | MDA-MB-231 > 100 µM | KM12 > 100 µM | SF-295 > 100 µM | PC-3 > 100 µM | T47D > 100 µM | DU-145 > 100 µM | MDA-N > 100 µM | HL-60 > 100 µM | OVCAR-8 > 100 µM

C/C(=N/NC(=O)c1ccncc1)C(F)(F)F
inactive: Hs-578T > 100 µM | NCI/ADR-RES > 100 µM | BT-549 > 100 µM | MDA-MB-435 > 100 µM | SR > 100 µM | SNB-75 > 100 µM | OVCAR-3 > 100 µM | KM12 > 100 µM | SF-295 > 100 µM | PC-3 > 100 µM | T47D > 100 µM | DU-145 > 100 µM | HL-60 > 100 µM | OVCAR-8 > 100 µM

COc1ncnc2c(Cl)c(C(O)c3ccccc3)c(Cl)cc12 (stereo not given)
inactive: UACC-257 > 100 µM | Hs-578T 19.6 µM | NCI/ADR-RES 28 µM | BT-549 20.6 µM | MDA-MB-435 5.57 µM | SR 3.5 µM | SNB-75 22.4 µM | OVCAR-3 43.8 µM | MDA-MB-231 18.6 µM | KM12 26.7 µM | SF-295 24.4 µM | PC-3 27.4 µM | T47D 40.1 µM | DU-145 60.4 µM | MDA-N 5.16 µM | HL-60 27.5 µM | OVCAR-8 30.5 µM

O=[N+]([O-])c1ccc(-c2nc(/C=N/N3CCCCC3)cs2)o1
inactive: UACC-257 19.3 µM | Hs-578T > 100 µM | NCI/ADR-RES 74.8 µM | 786-0 > 100 µM | BT-549 92.5 µM | MDA-MB-435 27.7 µM | SR 30.9 µM | SNB-75 > 100 µM | OVCAR-3 26.3 µM | MDA-MB-231 48.4 µM | KM12 33.9 µM | SF-295 > 100 µM | PC-3 > 100 µM | T47D 90.2 µM | DU-145 > 100 µM | HL-60 20.1 µM | OVCAR-8 92 µM

COc1cc(C(O)(CC#N)c2cc3c(cc2Br)OCO3)cc(OC)c1OC (stereo not given)
inactive: UACC-257 27.9 µM | NCI/ADR-RES 40 µM | BT-549 > 100 µM | MDA-MB-435 3 µM | SNB-75 65.3 µM | OVCAR-3 18 µM | MDA-MB-231 21.4 µM | KM12 21 µM | SF-295 16.3 µM | PC-3 28.1 µM | T47D > 100 µM | DU-145 33.5 µM | MDA-N 5.07 µM | OVCAR-8 44.9 µM

O=C1C(Cl)=C(Cl)C(=O)C2=C1C1c3ccccc3C2c2ccccc21
inactive: UACC-257 > 100 µM | Hs-578T 39.4 µM | NCI/ADR-RES 94.8 µM | 786-0 22.3 µM | BT-549 14.8 µM | MDA-MB-435 77.4 µM | SNB-75 > 100 µM | OVCAR-3 36.1 µM | MDA-MB-231 31.1 µM | KM12 59 µM | SF-295 41.5 µM | PC-3 > 100 µM | T47D 25.3 µM | DU-145 > 100 µM | MDA-N > 100 µM | HL-60 26.2 µM | OVCAR-8 > 100 µM

CCCCc1ccc(N2C(=O)c3cc([N+](=O)[O-])cnc3S2(=O)=O)cc1
inactive: UACC-257 > 100 µM | Hs-578T > 100 µM | NCI/ADR-RES 25.2 µM | 786-0 > 100 µM | BT-549 87.7 µM | MDA-MB-435 > 100 µM | SR 43.3 µM | SNB-75 > 100 µM | OVCAR-3 > 100 µM | MDA-MB-231 > 100 µM | KM12 > 100 µM | SF-295 47.2 µM | PC-3 > 100 µM | T47D > 100 µM | MDA-N > 100 µM | OVCAR-8 > 100 µM

Source: ChEMBL document CHEMBL1201862, “PubChem BioAssay data set” (2004)
